Tested on: human foetal lung fibroblasts
Experiment: not given
Settings: induced by BAL obtained from IPF patients; cited from earlier work
For `Cc1noc(-c2ccc(CSCCC(=O)O)cc2)c1NC(=O)OC(C)c1ccccc1Cl` (stereo not shown) [Ki16425], the “chemotaxis of human foetal lung fibroblasts” value is given as “blocked”.

Biological target: T1, LPA1 (Homo sapiens, UniProt Q92633)
T1 sequence (Q92633 whole entry): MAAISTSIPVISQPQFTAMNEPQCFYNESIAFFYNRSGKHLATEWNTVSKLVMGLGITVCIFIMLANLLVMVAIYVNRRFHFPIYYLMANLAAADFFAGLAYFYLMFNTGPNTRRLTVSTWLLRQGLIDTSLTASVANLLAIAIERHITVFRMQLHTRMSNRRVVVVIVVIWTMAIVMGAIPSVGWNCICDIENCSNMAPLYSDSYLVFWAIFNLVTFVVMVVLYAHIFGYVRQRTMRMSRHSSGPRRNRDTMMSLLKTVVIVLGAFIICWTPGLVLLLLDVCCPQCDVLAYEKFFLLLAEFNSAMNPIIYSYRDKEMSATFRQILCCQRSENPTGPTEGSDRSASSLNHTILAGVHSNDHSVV
Experiment: LPA1 functional antagonist assay (LPA-induced calcium flux)
Type: cell-based
Design: expressed in transfected cells; host or cells: Chinese hamster ovary (CHO) cells
Settings: CHO cells overexpressing human LPA1; calcium flux induced by 10 nM LPA; read-out: hLPA1 IC50
Method: The effectiveness of compounds of the present invention as LPA1 inhibitors can be determined in an LPA1 functional antagonist assay as follows:
Chinese hamster ovary cells overexpressing human LPA1 were plated overnight (15,000 cells/well) in poly-D-lysine coated 384-well microplates (Greiner bio-one, Cat #781946) in DMEM/F12 medium (Gibco, Cat #11039). Following overnight culture, cells were loaded with calcium indicator dye (AAT Bioquest Inc, Cat #34601) for 30 minutes at 37° C. The cells were then equilibrated to room temperature for 30 minutes before the assay. Test compounds solubilized in DMSO were transferred to 384 well non-binding surface plates (Corning, Cat #3575) using the Labcyte Echo acoustic dispense and diluted with assay buffer [1×HBSS with calcium/magnesium (Gibco Cat #14025-092), 20 mM HEPES (Gibco Cat #15630-080) and 0.1% fatty acid free BSA (Sigma Cat # A9205)] to a final concentration of 0.5% DMSO. Diluted compounds were added to the cells by FDSS6000 (Hamamatsu) at final concentrations ranging from 0.08 nM to 5 μM. and were then incubated for 20 min at room temperature at which time LPA (Avanti Polar Lipids Cat #857130C) was added at final concentrations of 10 nM to stimulate the cells. […] IC50 values were determined by fitting data to a 4-parameter logistic equation (GraphPad Prism, San Diego Calif.).
Compound `CCc1nc(-c2cnn(C)c2COC(=O)N(C)C2CCC2)ncc1O[C@H]1CCC[C@H](C(=O)O)C1` [Example 86] has an IC50 of 0.217 µM.
`Cc1nc(-c2cnn(C)c2COC(=O)N(C)[C@H](C)C2CC2)cnc1O[C@H]1CCC[C@H](C(=O)O)C1` [Example 6] showed an IC50 of 0.094 µM.
In the case of `Cc1nc(-c2cnn(C)c2COC(=O)N(C)C2CCCCC2)ncc1O[C@H]1CCC[C@H](C(=O)O)C1` [Example 79], the IC50 is reported as 0.093 µM.
For `CCCN(C)C(=O)OCc1c(-c2ccc(O[C@H]3CCC[C@H](C(=O)O)C3)c(C)n2)cnn1C` [Example 12], the IC50 was 0.054 µM.
`CN(C(=O)OCc1c(-c2ccc(O[C@H]3CCC[C@H](C(=O)O)C3)cc2)cnn1C)C1CCC1` [Example 50] gave an IC50 of 0.07 µM.
`Cc1nc(-c2cnn(C)c2COC(=O)NC2CCCCC2)ncc1O[C@H]1CCC[C@H](C(=O)O)C1` [Example 81] showed an IC50 of 0.856 µM.
`Cc1nc(-c2cnn(C)c2COC(=O)N(C)CC23CC(F)(C2)C3)ncc1O[C@H]1CCC[C@H](C(=O)O)C1` [Example 76] gave an IC50 of 0.346 µM.
Compound `CCCCN(C)C(=O)OCc1c(-c2ccc(O[C@H]3CCC[C@H](C(=O)O)C3)c(C)c2)cnn1C` [Example 30] has an IC50 of 0.005 µM.
Compound `Cc1nc(-c2cnn(C)c2COC(=O)N(C)CC2CCC2)ncc1O[C@H]1CCC[C@H](C(=O)O)C1` [Example 80] has an IC50 of 0.071 µM.
`CN(CC1CCC1)C(=O)OCc1c(-c2ccc(O[C@H]3CCC[C@H](C(=O)O)C3)cc2)cnn1C` [Example 52] showed an IC50 of 0.053 µM.
Work on `CCC(C)N(C)C(=O)OCc1c(-c2ccc(O[C@H]3CCC[C@H](C(=O)O)C3)cn2)cnn1C` (stereo partly shown) [Example 59] yielded an IC50 of 0.401 µM.
`Cc1nc(-c2cnn(C)c2COC(=O)N(C)CCCCCF)ncc1O[C@H]1CCC[C@H](C(=O)O)C1` [Example 73] showed an IC50 of 0.142 µM.
Work on `Cc1nc(-c2cnn(C)c2COC(=O)N(C)CC2CC2)ccc1O[C@H]1CCC[C@H](C(=O)O)C1` [Example 25] yielded an IC50 of 0.02 µM.
For `CN(CC1CC1)C(=O)OCc1c(-c2ccc(O[C@H]3CCC[C@H](C(=O)O)C3)cn2)cnn1C` [Example 4], the IC50 was 0.165 µM.
With `Cc1nc(-c2cnn(C)c2COC(=O)N(C)CC23CC(C2)C3)ncc1O[C@H]1CCC[C@H](C(=O)O)C1` [Example 77] the IC50 was 0.125 µM.
`CCCN(C)C(=O)OCc1c(-c2ncc(O[C@H]3CCC[C@H](C(=O)O)C3)c(C)n2)cnn1C` [Example 66, (1S,3S)-3-((4-Methyl-2-(1-methyl-5-(((methyl(propyl)carbamoyl)oxy)methyl)-1H-pyrazol-4-yl)pyrimidin-5-yl)oxy)cyclohexane-1-carboxylic Acid] showed an IC50 of 0.214 µM.
For `CC[C@H](C)CN(C)C(=O)OCc1c(-c2ccc(O[C@H]3CCC[C@H](C(=O)O)C3)c(C)n2)cnn1C` [Example 11], the IC50 was 0.073 µM.
Work on `C[C@@H](C1CC1)N(C)C(=O)OCc1c(-c2ccc(O[C@H]3CCC[C@H](C(=O)O)C3)cc2)cnn1C` [Example 57] yielded an IC50 of 0.192 µM.
Work on `C[C@H](C1CC1)N(C)C(=O)OCc1c(-c2ccc(O[C@H]3CCC[C@H](C(=O)O)C3)cn2)cnn1C` [Example 1, (1S,3S)-3-((6-(5-(((((R)-1-cyclopropylethyl)(methyl)carbamoyl)oxy)methyl)-1-methyl-1H-pyrazol-4-yl)pyridin-3-yl)oxy)cyclohexane-1-carboxylic Acid] yielded an IC50 of 0.067 µM.
For `CN(C(=O)OCc1c(-c2ccc(O[C@@H]3CCC[C@@H](C(=O)O)C3)cc2)cnn1C)C1CCC1` [Example 42], the IC50 was 0.415 µM.
In the case of `Cc1nc(-c2cnn(C)c2COC(=O)N(C)C[C@@H]2C[C@H]2C)ncc1O[C@H]1CCC[C@H](C(=O)O)C1` [Example 91], the IC50 is reported as 0.032 µM.
With `C[C@H](C1CC1)N(C)C(=O)OCc1c(-c2ccc(O[C@H]3CCC[C@H](C(=O)O)C3)cc2)cnn1C` [Example 58] the IC50 was 0.038 µM.

Tested on: pancreatic cancer cell lines
Experiment: not given
Settings: LPA-induced and ascites-induced; highly peritoneal metastatic pancreatic cancer cell line; cited from earlier work
For `Cc1noc(-c2ccc(CSCCC(=O)O)cc2)c1NC(=O)OC(C)c1ccccc1Cl` (stereo not shown) [Ki16425], the invasion activity is listed as “blocked”.

Same assay, conditions: in response to LPA and peritoneal fluid (ascites) from pancreatic cancer patients; cited from earlier work
For `Cc1noc(-c2ccc(CSCCC(=O)O)cc2)c1NC(=O)OC(C)c1ccccc1Cl` (stereo not shown) [Ki16425], the in vitro migration is given as “effectively blocked”.

Tested on: mouse epithelial renal cell line, MCT
Experiment: not given
Settings: LPA treatment of MCT cells, co-treatment; cited from earlier work
In the case of `Cc1noc(-c2ccc(CSCCC(=O)O)cc2)c1NC(=O)OC(C)c1ccccc1Cl` (stereo not shown) [Ki16425], the “induction of CTGF expression” value is given as “almost completely suppressed”.

Tested on: UUO mice
Experiment: not given
Settings: cited from earlier work
In the case of `Cc1noc(-c2ccc(CSCCC(=O)O)cc2)c1NC(=O)OC(C)c1ccccc1Cl` (stereo not shown) [Ki16425], the “development of renal fibrosis” value is listed as “closely resembled the profile of LPA1 (−/−) mice”.

Biological target: T1, LPA1
Experiment: not given
Settings: IPF patients, 26-week clinical trial; cited from earlier work
In the case of `Cc1noc(-c2ccc(-c3ccc(C4(C(=O)O)CC4)cc3)cc2)c1NC(=O)O[C@H](C)c1ccccc1` [BMS-986020], the “rate of FVC (forced vital capacity) decline” value is listed as “significantly reduce”.

From patent US11261174B2, “Pyrazole O-linked carbamoyl cyclohexyl acids as LPA antagonists” (BRISTOL-MYERS SQUIBB COMPANY, priority 2017, dated 2022)
